What all share (type): physicochemical
The nature of data set [1]: Colour stability test, stress conditions: storage at 40° C. To be noted: stored at 40° C. The protocol: The CIE b value was determined using a X-Rite® 918 apparatus (X-Rite Incorporated, 4300 44th St. SE, Grand Rapids, Mich. 49512 USA). A sample of 2 g of cefadroxil crystals was placed at the appropriate place of the apparatus and the CIE b value was read. The average of two separate readings was calculated. Cefadroxil (CDX) monohydrate crystals obtained by the one-step crystallisation process of the Reference Experiment A and the two-step crystallisation process according to the present invention were stored at a temperature of 40° C. The CIE b values of the different cefadroxil monohydrate crystals were determined at different time intervals as indicated in Table 1. CDX (1)-(3) were obtained from 3 different crystallisation processes.

Data set [2] in a line: Determination of the CIE b value (colour of crystals) after crystallisation. To be noted: crystals after isolation and drying, t=0; monohydrate. The protocol:
CIE is an abbreviation for the French title of the International Commission on Illumination: “Commission International de l'Eclairage”. The CIE b is a measure to determine the colour of crystals, which is a known technology for the skilled man in the art. An overview of the fundamentals of the CIE colorimetry system is given in Ohno, Y., Paper for IS&T NIO16 Conference, Vancouver, Canada, Oct. 16-20, 2000, p. 1-5. The CIE b value was determined using a X-Rite® 918 apparatus (X-Rite Incorporated, 4300 44th St. SE, Grand Rapids, Mich. 49512 USA). A sample of 2 g of cefadroxil crystals was placed at the appropriate place of the apparatus and the CIE b value was read. The average of two separate readings was calculated.

The nature of data set [3]: Colour stability test, storage at 25° C. To be noted: stored at 25° C. Here is the method: The CIE b value was determined using a X-Rite® 918 apparatus (X-Rite Incorporated, 4300 44th St. SE, Grand Rapids, Mich. 49512 USA). A sample of 2 g of cefadroxil crystals was placed at the appropriate place of the apparatus and the CIE b value was read. The average of two separate readings was calculated. The cefadroxil monohydrate crystals obtained with the one-step crystallisation process of Reference experiment A and a two-step crystallisation process according to the present invention were stored at 25° C.

Regarding `CC1=C(C(=O)O)N2C(=O)[C@@H](NC(=O)[C@H](N)c3ccc(O)cc3)[C@H]2SC1` [CDX (1), cefadroxil monohydrate], the CIE b is listed as 4.8 in data set [1] (0 weeks, monohydrate); 6.6 in data set [1] (4 weeks, monohydrate); 9.1 in data set [1] (8 weeks, monohydrate); 10.4 in data set [1] (12 weeks, monohydrate); 12.4 in data set [1] (20 weeks, monohydrate); 12.9 in data set [1] (24 weeks, monohydrate).
Regarding `CC1=C(C(=O)O)N2C(=O)[C@@H](NC(=O)[C@H](N)c3ccc(O)cc3)[C@H]2SC1` [CDX (2), cefadroxil monohydrate], the CIE b in data set [1] (0 weeks, monohydrate) turned out to be 4.4; in data set [1] (2 weeks, monohydrate), 4.8; in data set [1] (4 weeks, monohydrate), 5.1.
Take `CC1=C(C(=O)O)N2C(=O)[C@@H](NC(=O)[C@H](N)c3ccc(O)cc3)[C@H]2SC1` [CDX (3), cefadroxil monohydrate]: the CIE b is recorded as 3.1 in data set [1] (0 weeks, monohydrate); 3.0 in data set [1] (2 weeks, monohydrate); 4.6 in data set [1] (4 weeks, monohydrate).
Take `CC1=C(C(=O)O)N2C(=O)[C@@H](NC(=O)[C@H](N)c3ccc(O)cc3)[C@H]2SC1` [Example 1, cefadroxil monohydrate]: the CIE b value in data set [2] is recorded as 4.68.
For the compound `CC1=C(C(=O)O)N2C(=O)[C@@H](NC(=O)[C@H](N)c3ccc(O)cc3)[C@H]2SC1` [Example 2, cefadroxil monohydrate], the CIE b value in data set [2] is reported as 4.52.
For the compound `CC1=C(C(=O)O)N2C(=O)[C@@H](NC(=O)[C@H](N)c3ccc(O)cc3)[C@H]2SC1` [Reference Experiment A, cefadroxil monohydrate], in data set [2], the CIE b value is recorded as 6.2. Further, the CIE b in data set [1] (0 weeks, listed as CDX monohydrate crystals obtained by the one-step crystallisation process, monohydrate) is 6.2; in data set [1] (2 weeks, listed as CDX monohydrate crystals obtained by the one-step crystallisation process, monohydrate) it was 10.0; in data set [1] (4 weeks, listed as CDX monohydrate crystals obtained by the one-step crystallisation process, monohydrate), 13.2; in data set [1] (6 weeks) it was 15.6; in data set [1] (8 weeks, listed as CDX monohydrate crystals obtained by the one-step crystallisation process, monohydrate), 17.0; in data set [1] (12 weeks), 14.2. The CIE b is on record as 18.2 in data set [1] (14 weeks); 18.6 in data set [1] (18 weeks); 19.1 in data set [1] (20 weeks, listed as CDX monohydrate crystals obtained by the one-step crystallisation process, monohydrate); 20.0 in data set [1] (24 weeks, listed as CDX monohydrate crystals obtained by the one-step crystallisation process, monohydrate); 6.2 in data set [3] (0 months, listed as one-step crystallization process, monohydrate); 14.0 in data set [3] (3 months, listed as one-step crystallization process, monohydrate). Besides, the CIE b in data set [3] (6 months, listed as one-step crystallization process, monohydrate) was found to be 14.7; in data set [3] (9 months, listed as one-step crystallization process, monohydrate) it was 15.1; in data set [3] (12 months), 15.5; in data set [3] (18 months) it was 17.7.
Turning to `CC1=C(C(=O)O)N2C(=O)[C@@H](NC(=O)[C@H](N)c3ccc(O)cc3)[C@H]2SC1` [two-step crystallization process, cefadroxil monohydrate], the CIE b in data set [3] (0 months, monohydrate) is given as 4.8; in data set [3] (3 months, monohydrate), 5.8; in data set [3] (6 months, monohydrate), 6.0; in data set [3] (9 months, monohydrate), 6.3.
